Legend:
[1] = system: MDA-MB-231/ADR breast cancer cell line; experiment: MTT antiproliferative assay, MDA-MB-231/ADR; type: cell-based; conditions: Homo sapiens, MDA-MB-231/ADR (drug-resistant)
Protocol: (§1) The antiproliferative activity and cytotoxicity of DHA-5-methylisatin hybrids 6a–c and 7a–m against MCF-7, MDA-MB-231, MCF-7/ADR, and MDA-MB-231/ADR (Purchased from Procell) breast cancer cell lines as well as MCF-10A were assessed by 3-(4,5-dimethylthiazol-2-yl)-2,5-diphenyltetrazolium bromide (MTT) assay.
(§2) MCF-7, MDA-MB-231, MCF-7/ADR, and MDA-MB-231/ADR breast cancer cell lines (2 × 10^3) were plated in each well of a 96-well plate and were allowed to adhere and spread for 24 h. The dihydroartemisinin-5-methylisatin hybrids 6a–e and 7a–m were added to a final concentration of 100 µM, and the cells were cultured for 24 h at 37 °C. 3-(4,5-dimethyl-2-thiazolyl)-2,5-diphenyltetrazolium bromide (MTT) solution (10 µL) was added to each well, and the cultures were incubated for an additional 4 h. A further 100 µL of MTT solution was added and incubation continued overnight. The absorbance at 540 nm was determined in each well with a 96-well plate reader. The growth of the treated cells was compared with that of untreated cells.

[2] = system: MCF-7/ADR breast cancer cell line; experiment: MTT antiproliferative assay, MCF-7/ADR; type: cell-based; conditions: Homo sapiens, NCI/ADR-RES, MCF-7/ADR (drug-resistant)
Protocol: as §1, §2

[3] = system: MDA-MB-231 breast cancer cell line; experiment: MTT antiproliferative assay, MDA-MB-231; type: cell-based
Protocol: as §1, §2

[4] = system: MCF-7, MDA-MB-231, MCF-7/ADR, and MDA-MB-231/ADR breast cancer cell lines; experiment: MTT antiproliferative assay, summary over the breast cancer cell line panel; type: cell-based; conditions: range over the four breast cancer cell lines; read-out: IC50 range across MCF-7, MDA-MB-231, MCF-7/ADR and MDA-MB-231/ADR
Protocol: as §1, §2

[5] = MTT cytotoxicity assay, MCF-10A; conditions: human, MCF-10A normal breast cells
Protocol: as §1, §2

[6] = system: MCF-7 breast cancer cell line; experiment: MTT antiproliferative assay, MCF-7; type: cell-based
Protocol: as §1, §2

- IC50 [1]: 18.8 µM
- IC50 [2]: 20.1 µM
- IC50 ([3]; Homo sapiens, MDA-MB-231, MTT assay): 15.3 µM
- IC50 [4]: 15.3 to 20.1 µM
- IC50 ([6]; Homo sapiens, MCF7, MCF-7, MTT assay): 19.4 µM
SMILES: Cc1ccc2c(c1)C(=NO)C(=O)N2CCOC1O[C@@H]2O[C@@]3(C)CC[C@H]4[C@H](C)CC[C@@H]([C@H]1C)[C@@]24OO3 (stereo partly drawn) [Hybrid 7a, 3-(Hydroxyimino)-5-methyl-1-(2-(((3R,5aS,6R,8aS,9R,12R,12aR)-3,6,9-trimethyldecahydro-12H-3,12-epoxy[1,2]dioxepino[4,3-i]isochromen-10-yl)oxy)ethyl)indolin-2-one]
- SI2: selectivity index IC50(MCF-10A)/IC50(MDA-MB-231) ([3]; IC50(MCF-10A)/IC50(MDA-MB-231)): >6.53
- IC50 at 24 h [5]: > 100 µM
- SI1: selectivity index IC50(MCF-10A)/IC50(MCF-7) ([6]; IC50(MCF-10A)/IC50(MCF-7)): >5.15

Source: PMC9695041, “The Anti-Breast Cancer Activity of Dihydroartemisinin-5-methylisatin Hybrids Tethered via Different Carbon Spacers” (Molecules, 2022)
